Legend:
[1] = system: thymus gland; conditions: rat, in vivo, sc
Description: The compounds to be tested for thymolytic activity including a hydrocortisone (HC) standard, were prepared in three or more concentrations by suspension in a sodium carboxymethyl-cellulose vehicle. Animals received the test materials by subcutaneous injection of 0.5 ml of the suspension on each of three successive days. Four hours following the final injection, the rats were sacrificed and the thymus gland of each animal removed and weighed. These weights are then employed to establish dose-response graphs by methods known in the art.

[2] = therapeutic advantage (topical potency versus systemic activity); format: in vivo; conditions: in words
Description: The topical anti-inflammatory activity potential for each compound was assayed using a modified Stoughton/-McKenzie vaso-constriction assay in humans, V. A. Place, et al, Arch. […]. 101, 531-537 (1970). Eight normal adult human subjects were treated on each forearm by topical administration with alcohol solutions containing 1×10^-5 and 1×10^-6 g/ml of each of the compounds to provide 64 total test sites for each compound in a series (32 for each concentration). Areas of the subjects' forearms were outlined by a rubber stamp grid coated with silicone grease, and 10 microliters are applied per 7×7 mm square site. After the preparations have dried, the areas on each forearm are covered with Saran® wrap and the margins sealed with tape. The occlusive wrap is removed after 18 hours. Twenty-four hours after application, the presence of vasoconstriction is noted by visual examination, and expressed as the number of sites responding (vasoconstriction). Fluocinolone acetonide is used as a standard. Also, the intensity of the vasoconstriction is scorred on a 0, 1, 2 scale, 2 being the most intense reaction. Both scores are used in constructing dose-response graphs according to methods set forth in an article by V. A. Place et al, infra. […]

[3] = system: normal adult human subjects (vasoconstriction); assay: topical anti-inflammatory activity, modified Stoughton/McKenzie vasoconstriction assay in humans; format: in vivo
Text: The compounds of Formula (I) where R is alkyl of 1-6 carbon atoms, haloalkyl of 1-6 carbons or phenyl or benzyl optionally substituted on the phenyl ring with alkyl of 1-4 carbons, alkoxy of 1-4 carbons or halo and R^1, R^2, X^1, X^2, X^3 and X^4 are as defined in the broadest aspect of the invention are useful for the relief of inflamed conditions in mammals, and more specifically are useful for relieving inflammatory manifestations of corticosteroid responsive dermatoses. Initial approximation of anti-inflammatory activity is done by following the procedure of McKenzie, S. W. and Stoughton, R. B., "Methods for Comparing Percutaneous Absorption of Steroids" Arch Dermat, 86, (1962) or modifications thereof.
The topical anti-inflammatory activity potential for each compound was assayed using a modified Stoughton/-McKenzie vaso-constriction assay in humans, V. A. Place, et al, Arch. Dermat. 101, 531-537 (1970). Eight normal adult human subjects were treated on each forearm by topical administration with alcohol solutions containing 1×10^-5 and 1×10^-6 g/ml of each of the compounds to provide 64 total test sites for each compound in a series (32 for each concentration). […] Twenty-four hours after application, the presence of vasoconstriction is noted by visual examination, and expressed as the number of sites responding (vasoconstriction). […]

[4] = LD50, single subcutaneous injection, mortality observed for 21 days; format: in vivo, mouse; conditions: mouse, in vivo, sc; Swiss-Webster mice, subcutaneous, 21 days observation
Description: (§1) Six Swiss-Webster mice (Simonsen) each weighing about 25 grams, were injected subcutaneously with a solution of methyl 6α,9α-difluoro-11β-hydroxy-16α-methyl-3-oxo-17α-n-propionyloxyandrosta-1,4-diene 17β-thiocarboxylate in […] having a concentration of 10 ml/kg. The dosage was 25 mg/kg or about 0.625 mg/mouse. The mice were observed daily for mortality for 21 days.

[5] = system: Swiss-Webster mice; assay: as above; format: in vivo, mouse; conditions: six mice, 25 mg/kg subcutaneous, 21 days
Description: as §1

CCC(=O)O[C@]1(C(=O)OC)[C@H](C)C[C@H]2[C@@H]3C[C@H](F)C4=C(F)C(=O)C=C[C@]4(C)[C@@]3(F)[C@@H](O)C[C@@]21C [methyl 4,6α,9α-trifluoro-11β-hydroxy-16α-methyl-3-oxo-17α-propionyloxyandrosta-1,4-diene 17β-carboxylate]
systemic activity relative to HC [1]: 10 times HC
thymolytic activity [1]: slight activity in the dose range of hydrocortisone
therapeutic advantage [2]: distinct therapeutic advantage
topical potency relative to FA ([3]; alcohol solutions 1×10^-5 and 1×10^-6 g/ml, fluocinolone acetonide standard): 1-2 time FA
topical potency ([3]; in words): excellent topical potency

CCC(=O)O[C@]1(C(=O)SC)[C@H](C)C[C@H]2[C@@H]3C[C@H](F)C4=CC(=O)C=C[C@]4(C)[C@@]3(F)[C@@H](O)C[C@@]21C [methyl 6α,9α-difluoro-11β-hydroxy-16α-methyl-3-oxo-17α-n-propionyloxyandrosta-1,4-diene 17β-thiocarboxylate]
LD50 at 504 h [4]: > 25 mg/kg
mortality [5]: One mouse died

Source: patent US4261986A, “4-Halo etianic acids and derivatives thereof” (Syntex (U.S.A.) Inc., priority 1979, dated 1981)
